Reference: patent US9957246B2, “Prodrugs of tetrahydrocannabinol, compositions comprising prodrugs of tetrahydrocannabinol and methods of using the same” (Zynerba Pharmaceuticals, Inc., priority 2007, dated 2018)

How the values were obtained:
[1] = In vitro human skin permeation, flow-through diffusion cells; settings: for Flux enhancement: total THC equivalents
[2] = Plasma stability of prodrugs (bioconversion to parent drug); type: in vitro ADME
Procedure: Approximately 1 mg/mL of stock solution of each prodrug was prepared in 100 μL of ethanol and 900 μL of acetonitrile. Next, 10 μL of stock was spiked into 1 mL of plasma and vortexed. The samples were kept sealed in an amber vial and samples were obtained to analyze for bioconversion to parent drug.
An approximated 1 mg/mL stock solution of each prodrug was prepared in 100 μL of ethanol and 900 μL of acetonitrile. Next, 10 μL of stock was spiked into 1 mL of plasma and vortexed. The samples were kept sealed in an amber vial and samples were obtained to analyze for bioconversion to parent drug.
Approximately 1 mg/mL of stock solution of each prodrug was prepared in 100 μL of ethanol and 900 μL of acetonitrile. Ten μL of stock was spiked into 1 mL of plasma and vortexed. The samples were kept sealed in an amber vial and samples were obtained to analyze for bioconversion to parent drug.

[3] = Table 2, 100% PG donor solution, analyte: THC or intact prodrug (PD)
[4] = Table 4, gel formulation, analyte: THC from prodrug
[5] = Table 4, gel formulation, analyte: THC or intact prodrug (PD)
[6] = Table 17, 90:8:2 PG:H2O:IPM donor solution, analyte: THC from prodrug
[7] = Table 17, 90:8:2 PG:H2O:IPM donor solution, analyte: THC or intact prodrug as applied
[8] = Table 17, 90:8:2 PG:H2O:IPM donor solution
[9] = Table 17, 90:8:2 PG:H2O:IPM donor solution, total THC equivalents (THC and/or prodrug)
[10] = Table 3, 1:1:1 PG:ethanol:H2O donor solution, analyte: THC or intact prodrug (PD)
[11] = Table 9, 2.36:1.18:1 pH = 5.5 PG:ethanol:H2O donor solution, analyte: THC or intact prodrug as applied
[12] = Table 19, 90:8:2 PG:H2O:IPM donor solution, analyte: THC or intact prodrug as applied
[13] = Table 3, 1:1:1 PG:ethanol:H2O donor solution
[14] = Table 5, 1:1:1 PG:ethanol:H2O donor solution and higher flow rate
[15] = Table 6, 1:1:1 PG:ethanol:H2O donor solution, receiver fluid 25% aqueous ethanol
[16] = Table 6, 1:1:1 PG:ethanol:H2O donor solution, receiver fluid 40% aqueous PEG 400
[17] = Table 7, 2.36:1.18:1 PG:ethanol:H2O donor solution, analyte: THC or intact prodrug as applied
[18] = Table 8, gel formulation, analyte: THC or intact prodrug as applied
[19] = Table 10, 2.36:1.18:1 pH = 5.5 PG:ethanol:H2O donor solution, analyte: THC or intact prodrug as applied
[20] = Table 13, gel formulation with 40% aqueous PEG 400 receiver fluid, analyte: THC or intact prodrug as applied
[21] = Table 18, 90:8:2 PG:H2O:IPM donor solution, analyte: THC or intact prodrug as applied
[22] = Table 20, 90:8:2 PG:H2O:IPM donor solution (saturated), analyte: THC or intact prodrug as applied

CCCCCc1cc(OC(=O)COCCOCCOCCOC)c2c(c1)OC(C)(C)[C@@H]1CCC(C)=C[C@@H]21 [ALL00117, Δ^9-Tetrahydrocannabinol 3,6,9,12-tetraoxatridecanoyl ester]
24 h skin conc ([1]; Table 2, 100% PG donor solution, analyte: THC from prodrug): 1.1 ± 0.0 µmol/g
24 h skin conc [1, 3]: 8.9 ± 7.1 µmol/g
24 h cumulative amt ([1]; Table 4, gel formulation): 1.7 ± 0.0 nmol
Flux ([1]; Table 4, gel formulation): 0.07 ± 0.00 nmol/cm^2/h
24 h skin conc [1, 4]: 0.7 ± 0.1 µmol/g
24 h skin conc [1, 5]: 13.8 ± 4.1 µmol/g
24 h cumulative amt [1, 6]: 0.7 ± 0.7 nmol
24 h cumulative amt [1, 7]: 3.0 ± 0.3 nmol
24 h skin conc [1, 7]: 7.3 ± 1.8 µmol/g
Flux [1, 7]: 0.4 ± 0.1 nmol/cm^2/h
Lag time [1, 7]: 15.1 ± 0.2 h
Flux enhancement [1, 8]: 0.45
24 h cumulative amt [1, 9]: 3.7 ± 1.0 nmol
24 h skin conc [1, 9]: 7.3 ± 1.8 µmol/g
Flux [1, 9]: 0.5 ± 0.1 nmol/cm^2/h
Lag time [1, 9]: 15.4 ± 0.3 h
% Prodrug at time (h) ([2]; Table 15, 0.1 h): 100%
% Prodrug at time (h) ([2]; Table 15, 1 h): 35%
% Prodrug at time (h) ([2]; Table 15, 2.5 h): 7%
% Prodrug at time (h) ([2]; Table 15, 3.5 h): 5%

CCCCCc1cc(OC(=O)CN(C)C)c2c(c1)OC(C)(C)[C@@H]1CCC(C)=C[C@@H]21 [ALL00118, Δ^9-Tetrahydrocannabinol N,N-dimethylglycyl ester]
24 h skin conc ([1]; Table 3, 1:1:1 PG:ethanol:H2O donor solution, analyte: THC from prodrug): 7.1 ± 2.4 µmol/g
24 h skin conc [1, 10]: 37.3 ± 23.2 µmol/g
24 h skin conc [1, 4]: 65.9 ± 24.7 µmol/g
24 h skin conc [1, 5]: 48.8 ± 30.2 µmol/g
24 h cumulative amt [1, 6]: 5.6 ± 0.5 nmol
24 h skin conc [1, 6]: 3.7 ± 0.6 µmol/g
Flux [1, 6]: 0.4 ± 0.0 nmol/cm^2/h
Lag time [1, 6]: 10.2 ± 0.3 h
24 h cumulative amt [1, 7]: 5.8 ± 0.4 nmol
24 h skin conc [1, 7]: 9.8 ± 5.2 µmol/g
Flux [1, 7]: 0.5 ± 0.0 nmol/cm^2/h
Lag time [1, 7]: 12.8 ± 0.1 h
Flux enhancement [1, 8]: 0.90
24 h cumulative amt [1, 9]: 11.4 ± 0.7 nmol
24 h skin conc [1, 9]: 13.5 ± 5.8 µmol/g
Flux [1, 9]: 0.9 ± 0.1 nmol/cm^2/h
Lag time [1, 9]: 11.6 ± 0.2 h
% Prodrug at time (h) ([2]; Table 11, 0.1 h): 100%
% Prodrug at time (h) ([2]; Table 11, 1 h): 94%
% Prodrug at time (h) ([2]; Table 11, 22 h): 86%
% Prodrug at time (h) ([2]; Table 11, 24 h): 81%
% Prodrug at time (h) ([2]; Table 11, 42 h): 15%
% Prodrug at time (h) ([2]; Table 15, 0.1 h): 100%
% Prodrug at time (h) ([2]; Table 15, 1 h): 94%
% Prodrug at time (h) ([2]; Table 15, 2 h): 86%
% Prodrug at time (h) ([2]; Table 15, 2.5 h): 81%
% Prodrug at time (h) ([2]; Table 15, 24 h): 15%

CCCCCc1cc(OC(=O)OCCOCCOCCOCCOC)c2c(c1)OC(C)(C)[C@@H]1CCC(C)=C[C@@H]21 [ALL00119, Δ^9-Tetrahydrocannabinol 3,6,9,12-tetraoxatridecyl carbonate]
24 h skin conc [1, 11]: 13.6 ± 7.5 µmol/g
24 h skin conc ([1]; Table 9, 2.36:1.18:1 pH = 5.5 PG:ethanol:H2O donor solution, total THC equivalents (THC and/or prodrug)): 13.6 ± 7.5 µmol/g
% Prodrug at time (h) ([2]; Table 11, 0.1 h): 100%
% Prodrug at time (h) ([2]; Table 11, 1 h): 82%
% Prodrug at time (h) ([2]; Table 11, 22 h): 64%
% Prodrug at time (h) ([2]; Table 11, 24 h): 51%
% Prodrug at time (h) ([2]; Table 11, 42 h): 0%

CCCCCc1cc(OC(=O)C2CCCN2)c2c(c1)OC(C)(C)[C@@H]1CCC(C)=C[C@@H]21 (stereo partly drawn) [ALL00125, Δ^9-Tetrahydrocannabinol prolyl ester]
% Prodrug at time (h) ([2]; Table 11, 0.1 h): 100%
% Prodrug at time (h) ([2]; Table 11, 2 h): 77%
% Prodrug at time (h) ([2]; Table 11, 5 h): 55%
% Prodrug at time (h) ([2]; Table 11, 22 h): 0%
% Prodrug at time (h) ([2]; Table 11, 24 h): 0%
% Prodrug at time (h) ([2]; Table 11, 42 h): 0%

CCCCCc1cc(OC(=O)OCCCCN)c2c(c1)OC(C)(C)[C@@H]1CCC(C)=C[C@@H]21 [ALL00127, Δ^9-Tetrahydrocannabinol 4-aminobutyl carbonate]
% Prodrug at time (h) ([2]; Table 15, 0.1 h): 100%
% Prodrug at time (h) ([2]; Table 15, 1 h): 100%
% Prodrug at time (h) ([2]; Table 15, 2.5 h): 91%
% Prodrug at time (h) ([2]; Table 15, 3.5 h): 85%

CCCCCc1cc(OC(=O)[C@H](O)CO)c2c(c1)OC(C)(C)[C@@H]1CCC(C)=C[C@@H]21 [ALL00144, THC (R)-2,3-dihydroxypropanoate]
24 h cumulative amt [1, 12]: 137.9 ± 55.2 nmol
24 h skin conc [1, 12]: 65.5 ± 39.5 µmol/g
Flux [1, 12]: 8.6 ± 3.4 nmol/cm^2/h
Lag time [1, 12]: 7.2 ± 0.1 h

CCCCCc1cc(O)c2c(c1)OC(C)(C)[C@@H]1CCC(C)=C[C@@H]21 [Δ^9-tetrahydrocannabinol, reference compound]
24 h cumulative amt ([1]; Table 2, 100% PG donor solution): 6.91 ± 2.1 nmol
24 h skin conc [1, 3]: 74.8 ± 15.5 µmol/g
24 h cumulative amt [1, 13]: 9.0 ± 5.9 nmol
Flux [1, 13]: 0.93 ± 0.58 nmol/cm^2/h
Lag time [1, 13]: 13.0 ± 1.8 h
24 h skin conc [1, 10]: 59.4 ± 30.5 µmol/g
24 h cumulative amt ([1]; Table 4, gel formulation): 1.5 ± 0.3 nmol
Flux ([1]; Table 4, gel formulation): 0.14 ± 0.03 nmol/cm^2/h
Lag time ([1]; Table 4, gel formulation): 11.2 ± 2.7 h
24 h skin conc [1, 5]: 100.4 ± 5.8 µmol/g
24 h cumulative amt [1, 14]: 6.0 ± 2.1 nmol
24 h skin conc [1, 14]: 133.8 ± 52.3 µmol/g
Flux [1, 14]: 0.67 ± 0.15 nmol/cm^2/h
Lag time [1, 14]: 8.9 ± 7.2 h
24 h cumulative amt [1, 15]: 9.4 ± 0.2 nmol
24 h skin conc [1, 15]: 24.1 ± 5.2 µmol/g
Flux [1, 15]: 0.70 ± 0.01 nmol/cm^2/h
Lag time [1, 15]: 6.9 ± 0.2 h
24 h cumulative amt [1, 16]: 28.6 ± 3.2 nmol
24 h skin conc [1, 16]: 17.4 ± 11.6 µmol/g
Flux [1, 16]: 1.79 ± 0.39 nmol/cm^2/h
Lag time [1, 16]: 6.4 ± 1.6 h
24 h cumulative amt [1, 17]: 43.1 ± 4.8 nmol
24 h skin conc [1, 17]: 75.2 ± 33.1 µmol/g
Flux [1, 17]: 3.1 ± 0.2 nmol/cm^2/h
Lag time [1, 17]: 9.0 ± 2.9 h
24 h cumulative amt [1, 18]: 10.7 ± 2.1 nmol
24 h skin conc [1, 18]: 40.9 ± 14.7 µmol/g
Flux [1, 18]: 0.62 ± 0.23 nmol/cm^2/h
Lag time [1, 18]: 5.3 ± 3.3 h
24 h cumulative amt [1, 11]: 16.3 ± 7.3 nmol
24 h skin conc [1, 11]: 16.1 ± 0.5 µmol/g
Flux [1, 11]: 1.3 ± 0.5 nmol/cm^2/h
Lag time [1, 11]: 11.4 ± 0.6 h
24 h cumulative amt [1, 19]: 33.6 ± 11.2 nmol
24 h skin conc [1, 19]: 7.4 ± 0.6 µmol/g
Flux [1, 19]: 2.7 ± 1.1 nmol/cm^2/h
Lag time [1, 19]: 10.8 ± 1.4 h
24 h cumulative amt [1, 20]: 3.1 ± 0.8 nmol
24 h skin conc [1, 20]: 3.6 ± 1.7 µmol/g
Flux [1, 20]: 0.17 ± 0.02 nmol/cm^2/h
Lag time [1, 20]: 4.6 ± 3.2 h
24 h cumulative amt [1, 7]: 16.3 ± 0.3 nmol
24 h skin conc [1, 7]: 6.1 ± 1.9 µmol/g
Flux [1, 7]: 1.0 ± 0.3 nmol/cm^2/h
Lag time [1, 7]: 5.8 ± 5.9 h
24 h cumulative amt [1, 21]: 53.3 ± 0.0 nmol
24 h skin conc [1, 21]: 17.4 ± 9.2 µmol/g
Flux [1, 21]: 3.2 ± 0.0 nmol/cm^2/h
Lag time [1, 21]: 6.2 ± 0.0 h
24 h cumulative amt [1, 12]: 29.8 ± 3.3 nmol
24 h skin conc [1, 12]: 23.3 ± 1.7 µmol/g
Flux [1, 12]: 2.0 ± 0.3 nmol/cm^2/h
Lag time [1, 12]: 8.7 ± 0.3 h
24 h cumulative amt [1, 22]: 15.7 ± 4.5 nmol
24 h skin conc [1, 22]: 8.5 ± 3.5 µmol/g
Flux [1, 22]: 1.1 ± 0.3 nmol/cm^2/h
Lag time [1, 22]: 9.0 ± 0.7 h
